Data on 27 molecules can be found in patent publication EP0073276A1, “A method of increasing the feed efficiency of animals, and compositions for use in such a method” (RORER INTERNATIONAL (OVERSEAS) INC., priority 1981, dated 1983).

Structures are written as SMILES.

Type in all cases: in vivo
One assay deals with Male Sprague-Dawley rats. Description: Gastric emptying test (Amberlite pellet retention in the stomach). As to conditions: Rattus norvegicus, 30 minutes before 30 pellets, pellets counted four hours later; for inhibition at 0.25 mg/kg: oral dose 0.25 mg/kg; for inhibition at 10 mg/kg: oral dose 10 mg/kg; for inhibition at 0.5 mg/kg: oral dose 0.5 mg/kg. The method, then: The gastric emptying test is performed essentially as described by Brodie in Gastroenterology 50, 45-50 (1966). Male Sprague-Dawley rats (groups of five) are dosed orally with the test compounds or controls 30 minutes before the oral administration of 30 Amerlite pellets (Rohm & Haas Amberlite IRA-93, 1 mm diameter) suspended in 1 cm3 distilled water. The animals are killed with pentobarbital four hours after the pellets are given; the stomachs are removed and the number of pellets remaining in the stomach counted. The control group is compared to the drug treated group using the following formula: %retention = [(mean drug- treated) - (mean control) / 30-(mean control)] X 100.

For assay [1], the system named is Swiss-Webster male mice or Sprague-Dawley male rats. Briefly: Charcoal motility (intestinal transit of a charcoal suspension). As to conditions: oral dose 4 mg/kg, 30 minutes before charcoal; sacrificed 30 minutes after charcoal; species (mice or rats) not given. The method, then: A charcoal suspension (10 cm /kg of a 10% suspension of activated charcoal, U.S.P. in 0.5% methylcellulose) is given orally either to groups of 10 Swiss-Webster male mice (18-22 g, Taconic Farms) or groups of 5 Sprague-Dawley male rats (120-140 g, Charles River Breeding Labs., Inc.) 30 minutes after an oral dose of drug or control. The animals are sacrificied 30 minutes after receiving the charcoal and the intestines are carefully removed without stretching and placed lengthwise on moist paper. The length of the intestine (pyloric sphincter to caecum) and the distance travelled by the charcoal as a fraction of that length are evaluated for each animal and group means are compared and expressed as percentage inhibition; [formula] For estimation of the duration of inhibition, the interval between dosing with drug and the administration of charcoal is varied from 30 minutes to 6 hours.

The subject of the next assay is poultry. Briefly: Feed efficiency studies on poultry under strict laboratory conditions. As to conditions: disease and parasite-free environment, relative to control animals. From the text: Studies on poultry conducted under strict laboratory conditions, that is, in a disease and parasitt -free environment, indicate that the administration of feed efficiency agents, such as the amidinoureas defined in formulae I-VI and in particular 1-(2,6-dimethylphenyl)-3-methylamidinourea, results in an increase in the feed conversion ratio and weight gain of the treated animal relative to that of the control animals. The % improvement in the feed conversion ratio in the treated animals as compared with the controls is expressed by: • Body Weight Gain of Body Weight Gain of [formula]

Take `N=C(N)NC(=O)Nc1c(F)cccc1Cl` [R'=Cl, R"=F, Rm=H, R6=H, R1=H]: in the assay with Male Sprague-Dawley rats, the inhibition (as a rule, the drop in the measured response relative to a control, in per cent) at 0.25 mg/kg amounted to 60%. Molecule `Cc1cccc([N+](=O)[O-])c1NC(=O)NC(=N)N` [R'=CH3, R"=NO2, Rm=H, R6=H, R1=H] registered an inhibition at 4 mg/kg in assay [1] of 82%. In the assay on Male Sprague-Dawley rats, `Cc1ccc(NC(=O)NC(=N)N)c(Cl)c1` [R'=Cl, R"=H, Rm=4-CH3, R6=H, R1=H] yielded an inhibition at 10 mg/kg of 40%. `CNC(=N)NC(=O)Nc1ccccc1C` [R'=CH3, R"=H, Rm=H, R6=H, R1=CH3]: testing at 4 mg/kg in assay [1] gave an inhibition of 11%.

For the molecule `CCCCN(C(=O)NC(=N)N)c1c(C)cccc1C` [R'=CH3, R"=CH3, Rm=H, R6=n-Bu, R1=H], the inhibition at 4 mg/kg in assay [1] is 72%. For the molecule `COc1cccc(C)c1NC(=O)NC(=N)N` [R'=OCH3, R"=CH3, Rm=H, R6=H, R1=H], in the assay with Male Sprague-Dawley rats, the inhibition at 0.5 mg/kg came to 70%. In the case of `Cc1cc(C)c(NC(=O)NC(=N)N)c(C)c1` [R'=CH3, R"=CH3, Rm=4-CH3, R6=H, R1=H], in the assay with Male Sprague-Dawley rats, the inhibition at 10 mg/kg stood at 45%. The molecule `N=C(N)NC(=O)Nc1c(Cl)cc(Br)cc1Cl` [R'=Cl, R"=Cl, Rm=4Br, R6=H, R1=H] gave an inhibition at 40 mg/kg in the assay with Male Sprague-Dawley rats (oral dose 40 mg/kg) of 54%. In turn, `N=C(N)NC(=O)Nc1ccc([N+](=O)[O-])cc1` [R'=H, R"=H, Rm=4NO2, R6=H, R1=H] displayed an inhibition at 10 mg/kg in the assay with Male Sprague-Dawley rats of 59%. On to `Cc1cccc(Cl)c1N(C)C(=O)NC(=N)N` [R'=Cl, R"=CH3, Rm=H, R6=CH3, R1=H], for which at 4 mg/kg the inhibition in assay [1] was 82%. `N=C(N)NC(=O)Nc1ccc(Cl)c(Cl)c1` [R'=H, R"=H, Rm=3-Cl 4-Cl, R6=H, R1=H] displayed an inhibition at 10 mg/kg in the assay with Male Sprague-Dawley rats of 74%. For the molecule `Cc1cccc(C)c1NC(=O)NC(=N)N` [R'=CH3, R"=CH3, Rm=H, R6=H, R1=H], the inhibition at 0.25 mg/kg in the assay with Male Sprague-Dawley rats worked out at 55%.

`CCc1cccc(CC)c1NC(=O)NC(=N)N` [R'=ET, R"=ET, Rm=H, R6=H, R1=H] gave an inhibition at 2.5 mg/kg in the assay on Male Sprague-Dawley rats (oral dose 2.5 mg/kg) of 83%. With `Cc1ccccc1NC(=O)NC(=N)N` [R'=CH3, R"=H, Rm=H, R6=H, R1=H], in the assay with Male Sprague-Dawley rats, the inhibition at 10 mg/kg came out at 54%.

On to `CNC(=N)NC(=O)Nc1c(C)cccc1C` [1-(2,6-dimethylphenyl)-3-methylamidinourea], for which, in the assay on poultry, the feed conversion ratio result is reported as “increase” and the weight gain entry is given as “increase”.

Molecule `CCNC(=N)NC(=O)Nc1ccc(N)cc1` [R'=H, R"=H, Rm=4-NH2, R6=H, R1=ET] registered an inhibition at 4 mg/kg in assay [1] of 20%. Turning to `Cc1cccc(Br)c1NC(=O)NC(=N)N` [R'=Br, R"=CH3, Rm=H, R6=H, R1=H], the inhibition at 4 mg/kg in assay [1] was found to be 89%. On the same count and under the same terms, as for `CCCNC(=N)NC(=O)Nc1c(C)cc(C)cc1C` [R'=CH3, R"=CH3, Rm=4-CH3, R6=H, R1=n-Pr], the figure is 15%. Take `Cc1cccc(C)c1N(C)C(=O)NC(=N)N` [R'=CH3, R"=CH3, Rm=H, R6=CH3, R1=H]: 2 mg/kg produced 55% inhibition with Male Sprague-Dawley rats (oral dose 2 mg/kg). Take `Cc1cc(Cl)ccc1NC(=O)NC(=N)N` [R'=CH3, R"=H, Rm=4-Cl, R6=H, R1=H]: the inhibition at 10 mg/kg in the assay on Male Sprague-Dawley rats turned out to be 28%. Take `CCc1cccc(CC)c1N(C)C(=O)NC(=N)N` [R'=ET, R"=ET, Rm=H, R6=CH3, R1=H]: 4 mg/kg produced 12% inhibition in assay [1].

Turning to `Cc1cccc(Cl)c1NC(=O)NC(=N)N` [R'=Cl, R"=CH3, Rm=H, R6=H, R1=H], the inhibition at 0.25 mg/kg in the assay with Male Sprague-Dawley rats is 43%.

As for `N=C(N)NC(=O)Nc1ccc(Cl)cc1Cl` [R'=Cl, R"=H, Rm=4-Cl, R6=H, R1=H], the inhibition at 10 mg/kg in the assay with Male Sprague-Dawley rats turned out to be 85%. `CCc1cccc(C)c1NC(=O)NC(=N)N` [R'=ET, R"=CH3, Rm=H, R6=H, R1=H] came in with an inhibition at 0.5 mg/kg in the assay on Male Sprague-Dawley rats of 30%. Take `N=C(N)NC(=O)Nc1c(Cl)cccc1Cl` [R'=Cl, R"=Cl, Rm=H, R6=H, R1=H]: the inhibition at 0.125 mg/kg in the assay on Male Sprague-Dawley rats (oral dose 0.125 mg/kg) was determined as 54%. The molecule `CNC(=N)NC(=O)Nc1c(C)ccc(Br)c1C` [R'=CH3, R"=CH3, Rm=3Br, R6=H, R1=CH3] returned an inhibition at 4 mg/kg in assay [1] of 22%. The same measure, in the same setting: as for `N=C(N)NC(=O)Nc1c(Br)cccc1Br` [R'=Br, R"=Br, Rm=H, R6=H, R1=H], the figure is 91%.
